Results from patent publication US9890133B2 (priority 2011, dated 2018).
In brackets after ≈: the same amount, converted by molar mass. Read-outs that look alike come from different tables or passages of the source.

Experiments:
Poliovirus 3 = experiment: microbe, parasite or virus in culture; assay type: cell-based; details: Enterovirus C
[1] = system: mock-infected cells (HeLa, MRC-5, RD); details: human
[2] = clinical studies; cited from earlier work
in vitro = details: human
[3] = cited from earlier work; for metabolization and excretion / bioavailability: in vivo
rhinovirus infections = details: treatment of rhinovirus infections; cited from earlier work
Coxsackie A24(DN) = experiment: CPE inhibition assay, Coxsackie A24(DN); assay type: cell-based; details: MRC5, 48 h; MRC-5, 37° C., 2 days, FDA
Coxsackie A24(HG) = experiment: CPE inhibition assay, Coxsackie A24(HG); assay type: cell-based; details: MRC5, 48 h; MRC-5, 37° C., 2 days, FDA
[4] = in vivo; cited from earlier work
[5] = system: 48 rhinovirus types and coxsackievirus A21, B3, enterovirus 70 and echovirus 11; details: cell culture; cited from earlier work
[6] = cited from earlier work
[7] = HeLa37, 48 h, read-out: Poliovirus 3 EC50

Compound	melting point [°C]	CC50 (in vitro; Picorana CC50) [µg/mL]	other results
CC(C)c1ccc2c(c1)OC1(O)c3cccc(N)c3C(=O)C21NC(=O)c1[nH]nc2ccccc12 (centres unmarked) [Example 288, N-(1-Amino-4b-hydroxy-7-isopropyl-10-oxo-9b,10-dihydro-4bH-benzo[d]indeno[1,2-b]furan-9b-yl)-2H-indazole-3-carboxamide]			EC50 (Poliovirus 3; read-out: Poliovirus3 EC50): 0.029 µg/mL (≈ 0.0638 µM); Picorana CC50 [1]: >10 µg/mL
CC(C)S(=O)(=O)n1c(N)nc2ccc(/C(=N/O)c3ccccc3)cc21 [Enviroxime]			pharmacokinetics [2]: bad pharmacokinetics; side effects [2]: unwanted side effects; therapeutic effects [2]: insignificant or few therapeutic effects
CCc1ccc2c(c1)OC1(O)c3cccc(N)c3C(=O)C21O (centres unmarked) [Example 50, 1-Amino-7-ethyl-4b,9b-dihydroxy-4b,9b-dihydro-5-oxa-indeno[2,1-a]inden-10-one]	200 to 203		EC50 (Poliovirus 3; [7]): < 0.1 µg/mL; EC50 (Poliovirus 3; read-out: Poliovirus3 EC50): < 0.1 µg/mL; CC50 (in vitro): 49.9 µg/mL (≈ 168 µM)
Cc1cc(CCCOc2c(C)cc(-c3noc(C(F)(F)F)n3)cc2C)on1 [Pleconaril, pleconaril]			oral bioavailability ([3]; oral): very good oral bioavailability; side effects (rhinovirus infections): side effects were observed; therapy success (rhinovirus infections): therapy success was too low
CC(=O)O[C@@]12Oc3cc(C(C)C)ccc3[C@]1(OC(C)=O)C(=O)c1c(N)cccc12 [Example 47, 1-Amino-7-isopropyl-10-oxo-9b,10-dihydro-4bH-benzo[d]indeno[1,2-b]furane-4b,9b-diyl diacetate]	220 to 223		EC50 (Coxsackie A24(DN)): 0.055 µg/mL; EC50 (Coxsackie A24(HG)): < 0.01 µg/mL; EC50 (Poliovirus 3; [7]): < 0.1 µg/mL; EC50 (Poliovirus 3; read-out: Poliovirus3 EC50): < 0.1 µg/mL; CC50 (in vitro): 15.4 µg/mL
Cc1cc(CCCCCOc2c(Cl)cc(C3=NCCO3)cc2Cl)on1 [WIN 54954]			metabolization and excretion [3]: rapid metabolization and excretion; side effects [4]: skin rash
O=C1c2ccccc2C2(O)Oc3cc4ccccc4cc3C12O (centres unmarked) [Example 15, 4b,11b-Dihydroxy-4bH-indeno[1,2-b]naphtho[2,3-d]furan-12(11 bH)-one]	220 to 221	8.57 (≈ 28.2 µM)	
CCCc1ccc2c(c1)C1(O)C(=O)c3ccccc3C1(O)O2 (centres unmarked) [Example 17, 4b,9b-Dihydroxy-8-propyl-4bH-benzo[d]indeno[1,2-b]furan-10(9bH)-one]	126 to 127	7.85 (≈ 26.5 µM)	
O=C1c2ccccc2C2(O)Oc3c(-c4ccccc4)cccc3C12O (centres unmarked) [Example 13, 4b,9b-Dihydroxy-6-phenyl-4bH-benzo[d]indeno[1,2-b]furan-10(9bH)-one]	182 to 183	8.08 (≈ 24.5 µM)	
CCOC(=O)/C=C/[C@H](C[C@@H]1CCNC1=O)NC(=O)[C@@H](CC(=O)[C@@H](NC(=O)c1cc(C)on1)C(C)C)Cc1ccc(F)cc1 [AG 7088]			concentration range with antiviral effect [5]: nanomolar concentration range
CCOC(=O)Cc1cc(OC)c2c(c1)C1(O)C(=O)c3ccccc3C1(O)O2 (centres unmarked) [Example 3, Ethyl 2-(4b,9b-dihydroxy-6-methoxy-10-oxo-9b,10-dihydro-4bH-benzo[d]indeno[1,2-b]furane-8-yl)acetate]	133 to 136	> 50	
CC(C)c1ccc2c(c1)OC1(OC(=O)/C=C/c3ccccc3)c3ccccc3C(=O)C21OC(=O)/C=C/c1ccccc1 (centres unmarked) [Example 34, (2E,2′E)-7-Isopropyl-10-oxo-9b,10-dihydro-4bH-benzo[d]indeno[1,2-b]furan-4b,9b-diyl bis(3-phenylacrylate)]	111 to 113	> 50	
CC(C)c1ccc2c(c1)OC1(OC(=O)C(C)(C)C)c3ccccc3C(=O)C21OC(=O)C(C)(C)C (centres unmarked) [Example 33, 7-Isopropyl-10-oxo-9b,10-dihydro-4bH-benzo[d]indeno[1,2-b]furan-4b,9b-diyl bis(2,2-dimethylpropanoate)]	153 to 157	> 50	
CCC(=O)C(CCCCCCOc1ccc(OC)cc1Cl)C(=O)CC [arildone, Arildone]			solubility [6]: poor solubility; bioavailability [3]: low bioavailability
COc1ccc2c(c1)C(=O)C1(O)c3ccc(C(C)C)cc3OC21O (centres unmarked) [Example 32, 4b,9b-Dihydroxy-7-isopropyl-2-methoxy-4b,9b-dihydro-5-oxa-indeno[2,1-a]inden-10-one]	98 to 102	8.1 (≈ 24.8 µM)	
COc1ccc2c(c1)OC1(O)c3ccccc3C(=O)C21O (centres unmarked) [Example 7, 4b,9b-Dihydroxy-7-methoxy-4bH-benzo[d]indeno[1,2-b]furan-10(9bH)-one]	98 to 100	> 50	

Compound	melting point [°C]	CC50 (in vitro; Picorana CC50) [µg/mL]	other results
CCC(C)(C)c1cc(C(C)(C)CC)c2c(c1)C1(O)C(=O)c3ccccc3C1(O)O2 (centres unmarked) [Example 28, 6,8-Bis-(1,1-dimethyl-propyl)-4b,9b-dihydroxy-4b,9b-dihydro-5-oxa-indeno[2,1-a]inden-10-one]	195 to 222	9.2 (≈ 23.3 µM)	
COC(=O)O[C@@]12Oc3cc(C(C)C)ccc3[C@]1(OC(=O)OC)C(=O)c1c(N)cccc12 [Example 51]	110 to 120	17.5 (≈ 40.9 µM)	
COC(=O)Nc1cccc2c1C(=O)C1(O)c3ccc(C(C)C)cc3OC21O (centres unmarked) [Example 49, Methyl 4b,9b-dihydroxy-7-isopropyl-10-oxo-9b,10-dihydro-4bH-benzo[d]indeno[1,2-b]furan-1-ylcarbamate]	96 to 99	9.18 (≈ 24.9 µM)	
CC(C)(C)c1cc(C(C)(C)C)c2c(c1)C1(O)C(=O)c3ccccc3C1(O)O2 (centres unmarked) [Example 24, 6,8-di-tert-Butyl-4b,9b-dihydroxy-4bH-benzo[d]indeno[1,2-b]furan-10(9bH)-one]	200 to 203	8.8 (≈ 24 µM)	
CC(=O)O[C@@]12Oc3cc(C(C)C)ccc3[C@]1(OC(C)=O)C(=O)c1c(NS(C)(=O)=O)cccc12 (stereo in doubt) [Example 54, acetic acid 4b-acetoxy-7-isopropyl-1-methanesulfonylamino-10-oxo-4b,10-dihydro-5-oxa-indeno[2,1-a]inden-9b-yl ester]	96 to 100	> 50	
O=C1c2ccccc2C2(O)Oc3c(ccc4c3CCCC4)C12O (centres unmarked) [Example 31, 6b,11b-Dihydroxy-1,2,3,4,6b,11b-hexahydro-12-oxa-benzo[4,5]pentaleno[2,1-a]naphthalen-7-one]	252 to 254	8.9 (≈ 28.9 µM)	
CC(C)OC(=O)Nc1cccc2c1C(=O)C1(O)c3ccc(C(C)C)cc3OC21O (centres unmarked) [Example 29, Isopropyl 4b,9b-dihydroxy-7-isopropyl-10-oxo-9b,10-dihydro-4bH-benzo[d]indeno[1,2-b]furan-1-ylcarbamate]	200 to 202	7.49 (≈ 18.8 µM)	
CC(=O)OC12Oc3cc(C)ccc3C1(OC(C)=O)C(=O)c1ccccc12 (centres unmarked) [Example 2, 7-Methyl-10-oxo-9b,10-dihydro-4bH-benzo[d]indeno[1,2-b]furane-4b,9b-diyl diacetate]	167 to 169	> 50	
CCC(C)c1ccc2c(c1)C1(O)C(=O)c3ccccc3C1(O)O2 (centres unmarked) [Example 19, 8-sec-Butyl-4b,9b-dihydroxy-4bH-benzo[d]indeno[1,2-b]furan-10(9bH)-one]	134 to 136	8.34 (≈ 26.9 µM)	
Cc1cc2c(cc1C)C1(O)C(=O)c3ccccc3C1(O)O2 (centres unmarked) [Example 4, 4b,9b-dihydroxy-7,8-dimethyl-4bH-benzo[d]indeno[1,2-b]furan-10(9bH)-one]	198 to 200	> 50	
CC(=O)Nc1cccc2c1C(=O)[C@@]1(NC(C)=O)c3ccc(C(C)C)cc3O[C@@]21O [Example 87, N,N′-((4bS,9bS)-4b-Hydroxy-7-isopropyl-10-oxo-9b,10-dihydro-4bH-benzo[d]indeno[1,2-b]furane-1,9b-diyl)diacetamide]	205 to 207	36.8 (≈ 93.2 µM)	
O=C1c2ccccc2C2(O)Oc3ccc([N+](=O)[O-])cc3C12O (centres unmarked) [Example 14, 4b,9b-Dihydroxy-8-nitro-4bH-benzo[d]indeno[1,2-b]furan-10(9bH)-one]	206 to 207	> 50	
Cc1cc(CCCCCCCOc2ccc(C3=NCCO3)cc2)on1 [disoxaril]			bioavailability [3]: low bioavailability; metabolization and excretion [3]: rapid metabolization and excretion
C=CC(=O)OC12Oc3cc(C(C)C)ccc3C1(O)C(=O)c1ccccc12 (centres unmarked) [Example 35, 9b-Hydroxy-7-isopropyl-10-oxo-9b,10-dihydro-4bH-benzo[d]indeno[1,2-b]furan-4b-yl acrylate]	95 to 97	46.7 (≈ 133 µM)	
COC(=O)c1ccc2c(c1)C1(O)C(=O)c3ccccc3C1(O)O2 (centres unmarked) [Example 39, Methyl 4b,9b-dihydroxy-10-oxo-9b,10-dihydro-4bH-benzo[d]indeno[1,2-b]furan-8-carboxylate]	220 to 223	45.1 (≈ 144 µM)	
CC(C)c1ccc2c(c1)OC1(O)c3ccc(N)c(N)c3C(=O)C21O (centres unmarked) [Example 62, 1,2-Diamino-4b,9b-dihydroxy-7-isopropyl-4bH-indeno[1,2-b]benzofuran-10(9bH)-one]	163 to 166	> 50	
